Measurements published in US6174909A, “4-aminotetrahydrobenzisoxazole or -isothiazole compounds” (H. Lundbeck A/S, priority 1995, dated 2001).
Counter-ions that a name gives are not always drawn.

Tests used:
[1] = tested on: isoniazide induced convulsions in mice; assay: Isoniazid antagonism (antagonism of isoniazide induced convulsions in mice); assay type: in vivo, mice (male NMRI/BOM); settings: Mus musculus, sc, 30 min before 300 mg isoniazide s.c., protected = no convulsions within 60 min, log probit analysis
Experimental: The test is a test for antagonism of isoniazide induced convulsions in mice.
The test substance is given s.c. to mice (male NMRI/BOM, body weight 20-25 g) and 30 min later 300 mg isoniazide is given s.c. Five mice are used per dose and a control group only receiving isoniazide is included. This dose of isoniazide induces intermittent tonic seizures.
The animals are placed individually in Macrolon type II cages and the time when convulsions first occur is recorded. The experiment is stopped after 90 min. The animals that have not had convulsions within 60 min. are recorded as + (protected). The results, i.e. the number of protected mice pr number of tested mice are stated in fractions as follows: 0/5, 1/5 . . . , 5/5.

[2] = tested on: GABA uptake in synaptosomes; assay: GABA uptake inhibition in synaptosomes (overall, i.e. neuronal and glial); assay type: biochemical; settings: values marked * = Preliminary Data
Experimental: The inhibition of GABA Uptake was performed by the method described by Falch et. al, Drug Dev. Res., 1990,21, 169-188. By this method the overall, i.e. neuronal and glial, inhibition of GABA uptake is determined.

| Structure (SMILES) | ED50 [1] [µmol/kg] | IC50 [2] [µM] | IC50 ([2]; hydrobromide) [µM] |
| --- | --- | --- | --- |
| Cc1ccccc1C(=CCCNC1CCCc2onc(O)c21)c1ccccc1C (racemic) [Compound 8p, (R,S) -4-[N-1,1-Di-(2-tolyl)but-1-en-4-yl]amino]-3-hydroxy-4,5,6,7-tetrahydro-1,2-benzisoxazole, hydrobromide] | 30 | – | – |
| N[C@@H]1CCCc2onc(O)c21 [Compound 6b, (-)-(R)-4-amino-3-hydroxy-4,5,6,7-tetrahydro-1,2-benzisoxazole, hydrochloride] | – | 120 | – |
| Cc1ccccc1C(=CCCN(C)C1CCCc2onc(O)c21)c1ccccc1C (racemic) [Compound 8o, (R,S)-4-[N-[1,1-Di-(2-tolyl)but-1-en-4-yl]methylamino]-3-hydroxy-4,5,6,7-tetrahydro-1,2-benzisoxazole] | 50 | – | – |
| Oc1noc2c1C(NCc1ccccc1)CCC2 (racemic) [Compound 41a, (R,S)-3-Hydroxy-4-benzylamino-4,5,6,7-tetrahydro-1,2-benzisoxazole hydrobromide] | 77 | 140 | – |
| CNC1CCCc2onc(OCOC(=O)C(C)(C)C)c21 (racemic) [Compound 14a, (R,S)-4-methylamino-3-pivaloyloxymethyloxy-4,5,6,7-tetrahydro-1,2-benzisoxazole, hemioxalate] | 86 | > 300 | – |
| CNC1CCCc2on(COC(=O)C(C)(C)C)c(=O)c21 (racemic) [Compound 14b, (R,S)-4-methylamino-2-pivaloyloxym ethyl-4,5,6,7-tetrahydro-1,2-benz isoxazol-3-one, hemioxalate] | 220 | > 300 | – |
| CNC1CCCc2on(C(=O)Nc3ccccc3)c(=O)c21 (racemic) [Compound 15a, (R,S)-4-methylamino-2-phenylaminocarbonyl4,5,6,7-tetrahydro-1,2benzisoxazol-3-one, hydrochloride] | > 120 | 70 | – |
| OCCNC1CCCc2onc(O)c21 (racemic) [Compound 9a, (R,S)-4-(2-Hydroxyethylamino)-3-hydroxy-4,5,6,7-tetrahydro-1,2-benzisoxazole, hydrobromide] | > 140 | 180 | – |
| N[C@H]1CCCc2onc(O)c21 [Compound 6a, (+)-4-amino-3-hydroxy-4,5,6,7-tetrahydro-1,2-benzisoxazole, hydrochloride] | – | > 300 | – |
| CN(CCC=C1c2ccccc2CCc2ccccc21)C1CCCc2onc(O)c21 (racemic) [Compound 8k, (R,S)-4-[N-[3-(10,11 1-ihydrodibenzo[a,d]cyclohept-5-ylidene)propane-1-yl]methylamino]-3-hydroxy-4,5,6,7-tetrahydro-1,2-benzisoxazole, hydrobromide] | 68 | – | – |
| CNC(=O)n1oc2c(c1=O)C(NC)CCC2 (racemic) [Compound 15b] | 72 | 80 | – |
| Oc1noc2c1C(NCCC=C(c1ccccc1)c1ccccc1)CCC2 (racemic) [Compound 20b, (R,S)-3-Hydroxy-4-[N-(4,4-diphenyl-3-butenyl)amino]-4,5,6,7-tetrahydro-1,2-benzioxazole hydrochloride hydrate] | – | 0.14 | – |
| Oc1noc2c1C(NCCCC(c1ccccc1)c1ccccc1)CCC2 (racemic) [Compound 8g, (R,S)-4-(4,4-diphenylbutan-1-ylamino]-3-hydroxy-4,5,6,7-tetrahydro-1,2-benzisoxazole, hydrobromide] | 56 | 0.17 | – |
| CCNC1CCCc2onc(O)c21 (racemic) [Compound 8e, (R,S)-4-Ethylamino-3-hydroxy-4,5,6,7-tetrahydro-1,2-benzisoxazole, hydrobromide] | > 300 | 100 | – |
| CNC1CCCc2onc(O)c21 (racemic) [Compound 8a, (R,S)-3-Hydroxy-4-methylamino-4,5,6,7-tetrahydro-1,2-benzisoxazole, hydrobromide] | > 320 | 65 | – |
| Oc1noc2c1C(NCCCC(c1ccc(F)cc1)c1ccc(F)cc1)CCC2 (racemic) [Compound 8b, (R,S)-4-[4,4-Bis(4-fluorophenyl)butan-1-ylamino]-3-hydroxy-4,5,6,7-tetrahydro-1,2-benzisoxazole, hydrobromide] | 110 | 0.24 | – |
| Oc1noc2c1C(NCCCN1c3ccccc3Sc3ccccc31)CCC2 (racemic) [Compound 8l, (R,S)-4-[N-3-(Phenothiazin-10-yl)propane-1-yl]amino]-3-hydroxy4,5,6,7-tetrahydro-1,2-benzisoxazole, hydrobromide] | 71 | – | – |
| NC1CCCc2snc(O)c21 (racemic) [Compound 26a, (R,S)-4-Amino-3-hydroxy-4,5,6,7-tetrahydro-1,2-benzisothiazole, hydrobromide] | – | > 300 | – |
| CN(C(=O)Oc1ccccc1)C1CCCc2onc(O)c21 (racemic) [Compound 28a, (R,S)-3-Hydroxy-N-methyl-N-(4-phenyloxycarbonyl)amino-4,5,6,7-tetrahydro-1,2-benzisoxazole] | 200 | – | – |
| CN(C)C1CCCc2onc(O)c21 (racemic) [Compound 18a, (R,S)-4-Dimethylamino-3-hydroxy-4,5,6,7-tetrahydro-1,2-benzisoxazole, hydrobromide] | – | 280 | – |
| Cc1ccccc1C(CCCNC1CCCc2onc(O)c21)c1ccccc1C (racemic) [Compound 8n, (R,S)-4-[N-[4,4-Di-(2-tolyl)butan-1-yl]amino]-3-hydroxy-4,5,6,7-tetrahydro-1,2-benzisoxazole, hydrobromide] | 44 | – | – |
| CNC1CCCc2onc(OCOC(=O)c3ccccc3)c21 (racemic) [Compound 31a, (R,S)-3-Benzoyloxymethyloxy-4-methylamino-4,5,6,7-tetrahydro-1,2-benzisoxazole, hemioxalate] | 210 | – | – |
| CNC1CCCc2onc(O)c21 (single isomer, unassigned; (-)) [Compound 6d, (-)-3-hydroxy-4-methylamino-4,5,6,7-tetrahydro-1,2-benzisoxazole, hydrobromide] | – | – | > 300 |
| CNC1CCCc2onc(OCOC(=O)c3c(F)cccc3F)c21 (racemic) [Compound 31c, (R,S)-4-Methylamino-3-(2,6-difluorobenzoyloxymethyloxy)-4,5,6,7-tetrahydro-1,2-benzisoxazole, hemioxalate] | 210 | – | – |
| Cc1ccccc1C(CCCN(C)C1CCCc2onc(O)c21)c1ccccc1C (racemic) [Compound 8m, (R,S)-4-[N-[4,4-Di-(2-tolyl)butan-1-yl]-rmethylamino]-3-hydroxy-4,5,6,7-tetrahydro-1,2-benzisoxazole, hydrobromide] | 27 | – | – |
| Oc1noc2c1C(NCCC=C1c3ccccc3CCc3ccccc31)CCC2 (racemic) [Compound 8j, (R,S)-4-[N-[3-(10,11-dihydrodibenzo[a,d]cyclohept-5-ylidene)propane-1-yl]amino]-3-hydroxy-4,5,6,7-tetrahydro-1,2-benzisoxazole, hydrobromide] | – | 1.1 | – |
| Cc1ccsc1C(=CCCNC1CCCc2onc(O)c21)c1sccc1C (racemic) [Compound 20c, (R,S)-3-Hydroxy-4-[N-(4,4-bis[3-methylthien-2-yl]-3-butenyl)amino]-4,5,6,7-tetrahydro-1,2-benzisoxazole hydrochloride] | – | 0.17 | – |
